Assays:
Type in all cases: cell-based
[1] = biological target: T1, BmOR3 (Bombyx mori, UniProt Q5FBE0); test: Arrestin-kinase BRET assay; conditions: HEK293 cells transfected with BmOR3, BmArr-Rluc and YFP-tagged kinases; 1 μM, 10 min
Description: Twenty-four hours after transfection, cells were distributed into a 96-well microplate. After another 24 h, the cells were stimulated with 1 μM bombykal (for BmOR3-transfected cells) or 1 μM AngII for 10 min (for AT1R-transfected cells). BRET between RLuc and YFP was measured using a Mithras LB 940 multimode reader after the addition of the RLuc substrate coelenterazine h (5 μM). The BRET signal was calculated as the ratio of emission of YFP (530 nm) to RLuc (485 nm).

[2] = biological target: T1, BmOR3; test: Western blotting of ERK and SRC phosphorylation; conditions: BmOR3-expressing HEK293 cells; 1 μM, 15 min; abrogated in β-arrestin siRNA-transfected cells
Description: HEK293 cells transfected with BmOR3 in the absence or presence of βarrestin1/2 siRNA were starved for 12 h at 37 °C before stimulated with 1 μM bombykal for 15 min. The cells were lysed in ice-cold lysis buffer (50 mM Tris-HCl, pH 7.4, 150 mM NaCl, 1 mM NaF, 1% Triton, 2 mM EDTA, 1% NP-40, 1% protease and phosphatase inhibitor cocktail), and the supernatant was collected after centrifugation. Proteins were separated by PAGE and transferred to PVDF membrane. After blocking in PBS containing 5% bovine serum albumin and 0.1% Tween-20, the membrane was incubated with the primary antibody at 4 °C overnight, followed by incubation with HRP conjugate–secondary antibody at RT for an hour. The signals were detected with the ECL system (Thermo Fisher Scientific). Primary antibodies were as follows: anti-ERK (Santa Cruz, Cat. No. sc-154); anti-pERK (Proteintech, Cat. No. 15361-1-AP); anti-SRC (Cell Signaling Technology, Cat. No. 2109S); anti-pSRC(Y416) (Cell Signaling Technology, Cat. No. 2101S); anti-beta actin (ORIGENE, Cat. No. TA811000); anti-βarrestin1(Proteintech, Cat. No. 15361-1-AP); anti-βarrestin2 (Proteintech, Cat. No. 10171-1-AP).

[3] = biological target: T2, BmOR3–BmOrco (Bombyx mori, UniProt Q5FBE0); test: BmOR3–BmOrco intermolecular BRET assay; conditions: HEK293 cells; 5 min stimulation; read-out: EC50 of BRET signal increase between Rluc-BmOR3 and YFP-BmOrco
T2 sequence (Q5FBE0 1-439): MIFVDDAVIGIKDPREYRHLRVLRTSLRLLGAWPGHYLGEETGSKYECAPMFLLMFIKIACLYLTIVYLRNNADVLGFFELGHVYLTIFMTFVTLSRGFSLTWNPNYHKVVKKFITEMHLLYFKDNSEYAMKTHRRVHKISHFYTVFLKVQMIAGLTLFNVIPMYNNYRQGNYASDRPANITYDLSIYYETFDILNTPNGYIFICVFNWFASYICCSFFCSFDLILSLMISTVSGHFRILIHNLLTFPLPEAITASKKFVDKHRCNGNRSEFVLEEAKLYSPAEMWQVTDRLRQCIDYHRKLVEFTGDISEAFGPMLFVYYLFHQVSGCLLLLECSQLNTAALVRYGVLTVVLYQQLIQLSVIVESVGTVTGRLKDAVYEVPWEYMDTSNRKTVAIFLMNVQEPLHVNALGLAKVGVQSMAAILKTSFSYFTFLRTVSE
T2 sequence (Q7YT34 1-472 partner): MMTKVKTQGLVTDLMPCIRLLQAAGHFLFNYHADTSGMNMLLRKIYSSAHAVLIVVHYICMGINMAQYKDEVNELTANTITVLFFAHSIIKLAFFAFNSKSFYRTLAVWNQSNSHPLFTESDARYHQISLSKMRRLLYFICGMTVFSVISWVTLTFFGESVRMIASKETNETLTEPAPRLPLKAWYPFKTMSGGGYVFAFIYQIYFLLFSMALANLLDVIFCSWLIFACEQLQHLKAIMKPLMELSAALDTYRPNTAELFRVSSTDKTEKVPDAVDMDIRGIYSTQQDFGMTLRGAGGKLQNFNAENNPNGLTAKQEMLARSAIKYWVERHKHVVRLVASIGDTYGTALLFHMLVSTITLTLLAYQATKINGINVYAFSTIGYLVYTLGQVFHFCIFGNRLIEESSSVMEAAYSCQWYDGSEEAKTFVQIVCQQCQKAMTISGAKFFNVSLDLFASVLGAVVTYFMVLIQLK
Description: HEK293 cells were cotransfected with the N-terminal Rluc-tagged WT BmOR3 together with N-terminal YFP-fused BmOrco plasmids or their mutants. Twenty-four hours after transfection, cells were distributed into a 96-well microplate. After another 24 h, the cells were stimulated with different concentrations of bombykal for 5 min. BRET between RLuc and YFP was measured using a Mithras LB 940 multimode reader after the addition of the RLuc substrate coelenterazine h (5 μM). The BRET signal was calculated as the ratio of emission of YFP (530 nm) to RLuc (485 nm). For the saturation BRET between Rluc-BmOrco and YFP-BmOR3, HEK293 cells were transfected with a fixed amount of Rluc-BmOrco and increasing amounts of YFP-BmOR3. The BRET signal between RLuc and YFP was directly measured after the addition of the substrate coelenterazine h (5 μM).

CCC/C=C\C=C\CCCCCCCCC=O [bombykal]
association of β-arrestin with ERK, SRC, and AKT [1]: increased association | phosphorylation level of ERK [2]: significantly elevated | phosphorylation level of SRC [2]: significantly elevated | EC50 [3]: 36 ± 3.89 nM

From paper PMC8477192, “An ionic lock and a hydrophobic zipper mediate the coupling between an insect pheromone receptor BmOR3 and downstream effectors” (The Journal of Biological Chemistry, 2021)
